Earlier results as cited in patent publication US12502373B2, “High-content abamectin emulsifiable concentrate” (Rotam Agrochem International Company Limited, priority 2021, dated 2025).

Columns and labels:
[1] = pH: 5-9 and 25° C.

Substance: Abamectin
- oral LD50 (rats): 1470 mg/kg
- hydrolysis of the aqueous solution [1]: will not be hydrolysed
